Results on eleven compounds are retold here after US20090325959A1 (priority 2008, published 2009).

The target of one series is T1, ROCK2 (Homo sapiens, UniProt O75116).
T1 construct: purchased Upstate/Chemicon 14-451
As to the kind of experiment: Rho kinase inhibition assay (IMAP fluorescence polarization), ROCK2.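 Note: kinase reaction started with 10 µM ATP and run 60 min at room temperature, then phosphorylated substrate captured on IMAP beads for 30 min and fluorescence polarization read in mP.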 The format is biochemical. On the technique in general: Polarisation of emitted light reports the rotation of a fluorescent probe.

Another series concerns the target T2, ROCK1 (Homo sapiens, UniProt Q13464).
T2 construct: purchased Upstate/Chemicon 14-601
As to the kind of experiment: Rho kinase inhibition assay (IMAP fluorescence polarization), ROCK1.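 Note: kinase reaction run 60 min at room temperature, then phosphorylated substrate captured on IMAP beads for 30 min, with fluorescence polarization read in mP.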 The format is biochemical.

The test system of series [1] is A-10 rat thoracic aorta cells. Kind of series: PDGF-stimulated smooth muscle cell proliferation assay (BrdU incorporation).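 For all read-outs here: cells kept in serum-free medium, BrdU allowed to incorporate for 24 h, then incorporated label detected fluorometrically with an anti-BrdU antibody.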 The format is cell-based. To be noted: A-10 cells, 10 ng/mL PDGF, BrdU incorporation, percent of total challenge-stimulated proliferation; for Percent of PDGF Induced Proliferation at 1 μM Avg: 1 μM test compound; for Percent of PDGF Induced Proliferation at 10 μM Avg: 10 μM test compound. (In general: Uptake of a labelled nucleoside into DNA is a usual measure of proliferation.)

The nature of series [2]: Compound plasma concentrations in unsensitized mice at 15 min post administration. Type of series: in vivo. To be noted: mouse, 15 μmol/kg; mean compound plasma concentration in mice at 15 minutes post oral administration; read-out: Mouse Oral PK.
In another series the target is T3, p70S6K human enzyme (Homo sapiens, UniProt P23443, T412E).
T3 construct: purchased Upstate Chemicon 14-486
T3 sequence (P23443 1-421 T412E limits assumed): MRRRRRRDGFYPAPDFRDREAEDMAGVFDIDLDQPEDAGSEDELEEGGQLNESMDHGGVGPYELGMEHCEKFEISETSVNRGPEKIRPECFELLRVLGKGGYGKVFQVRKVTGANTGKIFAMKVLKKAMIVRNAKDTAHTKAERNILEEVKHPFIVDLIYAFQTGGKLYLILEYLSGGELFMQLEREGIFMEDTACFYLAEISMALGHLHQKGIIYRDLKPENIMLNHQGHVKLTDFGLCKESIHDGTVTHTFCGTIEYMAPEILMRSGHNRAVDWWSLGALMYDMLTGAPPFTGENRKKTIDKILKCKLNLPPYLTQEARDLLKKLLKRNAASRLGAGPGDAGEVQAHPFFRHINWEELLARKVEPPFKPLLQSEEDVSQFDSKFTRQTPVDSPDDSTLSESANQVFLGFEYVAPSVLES
Kind of series: p70S6K inhibition assay (IMAP FP).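 Note: kinase reaction run at room temperature, phosphorylated substrate captured on IMAP beads and read as fluorescence polarization in mP, IC50 then converted to Ki.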 The format is biochemical.

The target in another series is T4, Akt3 human enzyme (Homo sapiens, UniProt Q9Y243).
T4 construct: purchased Upstate Chemicon 14-502
T4 sequence (Q9Y243 whole entry): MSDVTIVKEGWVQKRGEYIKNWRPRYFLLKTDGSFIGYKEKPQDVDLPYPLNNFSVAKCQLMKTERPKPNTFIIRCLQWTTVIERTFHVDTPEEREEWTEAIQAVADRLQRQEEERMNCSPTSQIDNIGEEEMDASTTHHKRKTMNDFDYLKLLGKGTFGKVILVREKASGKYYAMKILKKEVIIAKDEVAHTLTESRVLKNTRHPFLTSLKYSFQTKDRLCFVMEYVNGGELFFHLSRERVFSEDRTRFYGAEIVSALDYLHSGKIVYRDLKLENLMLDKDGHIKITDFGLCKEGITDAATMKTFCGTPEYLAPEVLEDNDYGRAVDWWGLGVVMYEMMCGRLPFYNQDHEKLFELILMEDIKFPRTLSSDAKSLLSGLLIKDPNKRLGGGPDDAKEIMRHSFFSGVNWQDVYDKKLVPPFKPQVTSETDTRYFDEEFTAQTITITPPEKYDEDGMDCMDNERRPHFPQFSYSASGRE
Kind of series: Akt3 inhibition assay (IMAP FP).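 Note: kinase reaction run 60 min at room temperature after 30 µM ATP start, phosphorylated substrate captured on IMAP beads and read as fluorescence polarization (mP).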 The format is biochemical.

The mark [3] stands for this setting: 10 μM ATP, read-out: ROCK2 Ki, Avg.
[4] abbreviates: 30 μM ATP, Ki=IC50/(1+([ATP Challenge]/EC50 ATP)), read-out: p70S6K Ki, Avg.
The mark [5] stands for this setting: average Ki, read-out: p70S6K Ki.
The mark [6] stands for this setting: 30 μM ATP, Ki=IC50/(1+([ATP Challenge]/EC50 ATP)), read-out: Akt3 Ki, Avg.

Like-named read-outs stand apart in the source and are kept apart here.

T2 sequence (Q13464 17-535 limits assumed): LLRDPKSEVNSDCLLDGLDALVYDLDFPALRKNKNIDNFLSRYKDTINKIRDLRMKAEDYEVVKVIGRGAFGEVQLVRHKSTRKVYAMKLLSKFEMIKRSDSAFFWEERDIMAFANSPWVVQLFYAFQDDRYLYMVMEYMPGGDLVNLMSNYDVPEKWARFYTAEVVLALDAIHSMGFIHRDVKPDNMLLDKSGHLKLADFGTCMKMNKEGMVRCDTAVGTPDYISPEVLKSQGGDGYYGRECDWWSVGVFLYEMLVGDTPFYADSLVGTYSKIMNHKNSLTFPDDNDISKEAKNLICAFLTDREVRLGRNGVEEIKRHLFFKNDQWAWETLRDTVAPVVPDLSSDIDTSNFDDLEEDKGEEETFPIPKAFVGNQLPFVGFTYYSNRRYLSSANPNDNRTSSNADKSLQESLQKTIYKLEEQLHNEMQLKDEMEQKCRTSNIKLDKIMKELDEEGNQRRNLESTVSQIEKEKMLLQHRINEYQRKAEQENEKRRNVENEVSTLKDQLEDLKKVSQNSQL
T1 sequence (O75116 11-552 limits assumed): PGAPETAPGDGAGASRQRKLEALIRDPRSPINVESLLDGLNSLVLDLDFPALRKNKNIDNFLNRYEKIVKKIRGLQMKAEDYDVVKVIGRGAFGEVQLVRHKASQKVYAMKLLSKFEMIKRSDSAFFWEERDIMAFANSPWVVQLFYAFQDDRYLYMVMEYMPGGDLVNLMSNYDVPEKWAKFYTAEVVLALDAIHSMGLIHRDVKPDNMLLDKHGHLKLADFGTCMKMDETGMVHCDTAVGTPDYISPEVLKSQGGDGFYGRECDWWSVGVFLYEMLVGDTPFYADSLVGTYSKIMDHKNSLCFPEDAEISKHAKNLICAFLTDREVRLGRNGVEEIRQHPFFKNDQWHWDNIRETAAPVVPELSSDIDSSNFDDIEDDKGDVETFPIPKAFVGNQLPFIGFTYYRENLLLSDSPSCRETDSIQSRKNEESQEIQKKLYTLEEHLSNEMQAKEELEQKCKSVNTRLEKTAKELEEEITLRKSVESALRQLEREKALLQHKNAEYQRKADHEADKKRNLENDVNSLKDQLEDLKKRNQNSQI
Protocol for Akt3 human enzyme: Inhibition of Akt3 and p70S6K activity was determined using the IMAP™ FP Progressive Binding Kit (Molecular Devices product number R8127). […] Following the pre-incubation, 30 μM ATP was added to initiate the reaction. After 60 minutes at RT, Molecular Devices IMAP™ binding solution was added to bind phosphorylated substrate. After 30 minutes of incubation in the presence of the IMAP™ beads the fluorescence polarization was read and the ratio was reported as mP. IC50 results were calculated using the Prism software from Graphpad. The Ki values were determined according to the following formula: Ki=IC50/(1+([ATP Challenge]/EC50 ATP)).
Protocol for ROCK1: (§1) Following the pre-incubation, 10 μM ATP was added to initiate the reaction. After 60 minutes at room temperature, Molecular Devices IMAP™ binding solution was added to bind phosphorylated substrate. After 30 minutes of incubation in the presence of the IMAP™ beads, the fluorescence polarization was read and the ratio was reported as mP. IC50 values for compounds and EC50 values for ATP were calculated using the Prism software from Graphpad.
Protocol for ROCK2: as §1

Take `COc1ccc(CN2CC[C@@H](Nc3cccc4cnccc34)C2)cc1` [Compound 2.047, (R)-N-(1-(4-methoxybenzyl)pyrrolidin-3-yl)isoquinolin-5-amine]: the inhibitory constant (Ki) (in general, the equilibrium dissociation constant of an inhibitor or competing ligand from its target) at ROCK2 (setting [3]) worked out at 0.007 µM; at ROCK2 (average Ki, read-out: ROCK2 Ki), 0.007 µM; at ROCK1 (Avg, 10 μM ATP), 0.0264 µM; at ROCK1 (average Ki) it was 0.0264 µM; on p70S6K human enzyme (setting [4]) it was 0.437 µM; at p70S6K human enzyme (setting [5]) it was 0.437 µM. The inhibition constant (Ki) at Akt3 human enzyme (setting [6]) was found to be 1.94 µM; at Akt3 human enzyme (average Ki, read-out: Akt3 Ki), 1.94 µM. The “Percent of PDGF Induced Proliferation at 1 μM Avg” value (shortened to “Percent … at 1 μM Avg”) in series [1] stood at 65.3%. In series [1], the “Percent of PDGF Induced Proliferation at 10 μM Avg” value (shortened to “Percent … at 10 μM Avg”) is given as 53.8%. Further, in series [2], the concentration at 15 min worked out at 3 nM.

On to `Cc1ccc(CN2CCC[C@@H](Nc3ccc4[nH]ncc4c3)C2)cc1O` [Compound 1.173, (R)-5-((3-(1H-indazol-5-ylamino)piperidin-1-yl)methyl)-2-methylphenol], for which the Ki at ROCK2 (setting [3]) was 0.0036 µM; on ROCK2 (average Ki, read-out: ROCK2 Ki), 0.0036 µM; at ROCK1 (Avg, 10 μM ATP), 0.0151 µM; at ROCK1 (average Ki) it was 0.0151 µM; at p70S6K human enzyme (setting [4]), 0.34 µM; at p70S6K human enzyme (setting [5]), 0.34 µM. The inhibition constant Ki was 0.157 µM on Akt3 human enzyme (setting [6]) and 0.157 µM at Akt3 human enzyme (average Ki, read-out: Akt3 Ki). Also, the “Percent … at 1 μM Avg” value in series [1] was 55.4%. For the same compound, the “Percent … at 10 μM Avg” value in series [1] was found to be 35.8%. Also, in series [2], the concentration at 15 min came out at 144 nM.

For the compound `c1cc(C2CC2)ccc1CN1CCC[C@@H](Nc2ccc3[nH]ncc3c2)C1` [Compound 1.206, (R)-N-(1-(4-cyclopropylbenzyl)piperidin-3-yl)-1H-indazol-5-amine], the Ki on ROCK2 (setting [3]) is 0.0091 µM; on ROCK2 (average Ki, read-out: ROCK2 Ki), 0.0091 µM; on ROCK1 (Avg, 10 μM ATP), 0.0644 µM; on ROCK1 (average Ki), 0.0644 µM; on p70S6K human enzyme (setting [4]), 0.314 µM; at p70S6K human enzyme (setting [5]) it was 0.314 µM. Also, the inhibition constant Ki was 0.529 µM on Akt3 human enzyme (setting [6]) and 0.529 µM on Akt3 human enzyme (average Ki, read-out: Akt3 Ki). In addition, in series [1], the “Percent … at 1 μM Avg” value was found to be 77.5%. In addition, in series [1], the “Percent … at 10 μM Avg” value is 51.1%. Further, the concentration at 15 min in series [2] came to 672 nM.

For the compound `C#Cc1ccc(CN2CC[C@@H](Nc3cccc4cnccc34)C2)cc1` [Compound 2.031, (R)-N-(1-(4-ethynylbenzyl)pyrrolidin-3-yl)isoquinolin-5-amine], the inhibition constant Ki is 0.0053 µM at ROCK2 (setting [3]); 0.0053 µM at ROCK2 (average Ki, read-out: ROCK2 Ki); 0.0146 µM at ROCK1 (Avg, 10 μM ATP); 0.0146 µM on ROCK1 (average Ki); 0.326 µM at p70S6K human enzyme (setting [4]); 0.326 µM at p70S6K human enzyme (setting [5]). In addition, the Ki at Akt3 human enzyme (setting [6]) was 1.36 µM; at Akt3 human enzyme (average Ki, read-out: Akt3 Ki), 1.36 µM. Further, the “Percent … at 1 μM Avg” value in series [1] is reported as 90.3%. Moreover, the “Percent … at 10 μM Avg” value in series [1] was determined as 52.6%. For the same compound, the concentration at 15 min in series [2] was 1430 nM.

For `Clc1ccc(CN2CCC[C@@H](Nc3ccc4[nH]ncc4c3)C2)cc1` [Compound 1.132, (R)-N-(1-(4-chlorobenzyl)piperidin-3-yl)-1H-indazol-5-amine], the Ki at ROCK2 (setting [3]) is 0.0035 µM; at ROCK2 (average Ki, read-out: ROCK2 Ki), 0.0035 µM; at ROCK1 (Avg, 10 μM ATP) it was 0.0225 µM; on ROCK1 (average Ki), 0.0225 µM; on p70S6K human enzyme (setting [4]) it was 0.515 µM; at p70S6K human enzyme (setting [5]), 0.515 µM. The inhibition constant (Ki) on Akt3 human enzyme (setting [6]) amounted to 0.0818 µM; at Akt3 human enzyme (average Ki, read-out: Akt3 Ki) it was 0.0818 µM. In series [1], the “Percent … at 1 μM Avg” value is 48.9%. In addition, the “Percent … at 10 μM Avg” value in series [1] is reported as 30.3%. Further, the concentration at 15 min in series [2] worked out at 982 nM.

As for `CCS(=O)(=O)Nc1cc(CN2CC[C@@H](Nc3cccc4cnccc34)C2)ccc1C` [Compound 2.054, (R)-N-(5-((3-(isoquinolin-5-ylamino)pyrrolidin-1-yl)methyl)-2-methylphenyl)ethanesulfonamide], the Ki came to 0.0037 µM at ROCK2 (setting [3]); 0.0037 µM on ROCK2 (average Ki, read-out: ROCK2 Ki); 0.0171 µM on ROCK1 (Avg, 10 μM ATP); 0.0171 µM at ROCK1 (average Ki); 0.439 µM on p70S6K human enzyme (setting [4]); 0.439 µM at p70S6K human enzyme (setting [5]). The Ki at Akt3 human enzyme (setting [6]) amounted to 0.415 µM; on Akt3 human enzyme (average Ki, read-out: Akt3 Ki), 0.415 µM. Also, the “Percent … at 1 μM Avg” value in series [1] came to 68.2%. For the same compound, the “Percent … at 10 μM Avg” value in series [1] stood at 84.6%. In addition, in series [2], the concentration at 15 min turned out to be 765 nM.

For `CC(=O)NCc1cccc(CN2CCC[C@H](Nc3ccc4[nH]ncc4c3)C2)c1` [Compound 1.197], the Ki at ROCK2 (setting [3]) came to 0.005 µM; at ROCK2 (average Ki, read-out: ROCK2 Ki), 0.005 µM; on ROCK1 (Avg, 10 μM ATP), 0.12 µM; on ROCK1 (average Ki), 0.12 µM; on p70S6K human enzyme (setting [4]), 8.69 µM; on p70S6K human enzyme (setting [5]), 8.69 µM. The inhibition constant (Ki) on Akt3 human enzyme (setting [6]) was 64.1 µM; at Akt3 human enzyme (average Ki, read-out: Akt3 Ki), 64.1 µM. In addition, the “Percent … at 1 μM Avg” value in series [1] was found to be 52.5%. The “Percent … at 10 μM Avg” value in series [1] is reported as 48.9%. Further, in series [2], the concentration at 15 min was 453 nM.

For the compound `CCS(=O)(=O)Nc1cccc(CN2CC[C@@H](Nc3cccc4cnccc34)C2)c1` [Compound 2.041, (R)-N-(3-((3-(isoquinolin-5-ylamino)pyrrolidin-1-yl)methyl)phenyl)ethanesulfonamide], the Ki on ROCK2 (setting [3]) was found to be 0.0096 µM; on ROCK2 (average Ki, read-out: ROCK2 Ki), 0.0096 µM; on ROCK1 (Avg, 10 μM ATP) it was 0.0308 µM; on ROCK1 (average Ki), 0.0308 µM; on p70S6K human enzyme (setting [4]) it was 2.1 µM; on p70S6K human enzyme (setting [5]), 2.1 µM. Also, the inhibition constant (Ki) came out at 3.44 µM at Akt3 human enzyme (setting [6]) and 3.44 µM at Akt3 human enzyme (average Ki, read-out: Akt3 Ki). Further, the “Percent … at 1 μM Avg” value in series [1] turned out to be 81.8%. Besides, in series [1], the “Percent … at 10 μM Avg” value is 61.5%. In series [2], the concentration at 15 min was 987 nM.

Turning to `C#Cc1ccc(CN2CCC[C@@H](Nc3ccc4[nH]ncc4c3)C2)cc1` [Compound 1.076, (R)-N-(1-(4-ethynylbenzyl)piperidin-3-yl)-1H-indazol-5-amine], the inhibitory constant (Ki) at ROCK2 (setting [3]) is 0.0026 µM; at ROCK2 (average Ki, read-out: ROCK2 Ki), 0.0026 µM; on ROCK1 (Avg, 10 μM ATP), 0.0143 µM; at ROCK1 (average Ki), 0.0143 µM; on p70S6K human enzyme (setting [4]) it was 0.414 µM; on p70S6K human enzyme (setting [5]), 0.414 µM. For the same compound, the inhibitory constant (Ki) worked out at 0.241 µM on Akt3 human enzyme (setting [6]) and 0.241 µM on Akt3 human enzyme (average Ki, read-out: Akt3 Ki). In series [1], the “Percent … at 1 μM Avg” value is reported as 84.0%. For the same compound, in series [1], the “Percent … at 10 μM Avg” value was 53.7%. Further, the concentration at 15 min in series [2] came to 1720 nM.

On to `FC(F)(F)c1ccc(CN2CCC[C@H](Nc3ccc4[nH]ncc4c3)C2)cc1` [Compound 1.167, (S)-N-(1-(4-(trifluoromethyl)benzyl)piperidin-3-yl)-1H-indazol-5-amine], for which the Ki at ROCK2 (setting [3]) stood at 0.0185 µM; at ROCK1 (Avg, 10 μM ATP) it was 0.119 µM; at p70S6K human enzyme (setting [4]), 1.07 µM; at Akt3 human enzyme (setting [6]) it was 8.25 µM. In addition, the “Percent … at 1 μM Avg” value in series [1] is recorded as 78.8%. For the same compound, the “Percent … at 10 μM Avg” value in series [1] was found to be 52.7%.

As for `Clc1ccc(CN2CC[C@@H](Nc3cccc4cnccc34)C2)cc1` [Compound 2.027, (R)-N-(1-(4-chlorobenzyl)pyrrolidin-3-yl)isoquinolin-5-amine], the Ki on ROCK2 (setting [3]) stood at 0.0074 µM; on ROCK1 (Avg, 10 μM ATP), 0.0157 µM; at p70S6K human enzyme (setting [4]), 0.509 µM; at Akt3 human enzyme (setting [6]), 0.658 µM. Further, the “Percent … at 1 μM Avg” value in series [1] is 79.4%. Moreover, the “Percent … at 10 μM Avg” value in series [1] is 64.4%.
